# What was measured:
# [1] = test system: MCF7 cells; test: Cell-cycle analysis by flow cytometry (PI), MCF7; format: cell-based, human; details: MCF7, 117.6 μg/mL, 24 h
# Procedure: The Ru(III) complex (2) (117.6 μg/mL) was added to MCF7 and Caco2 cells at a confluence of 70–80% and incubated for 24 h (in a CO2 incubator). The cells were then digested with warm trypsin-EDTA + warm PBS-EDTA (0.25%) (500 + 500 μL) with incubation for 10 min at 37 °C. The mixture was centrifuged (450 rpm) for 5 min, then the supernatant was removed. The mixture was washed twice in warm PBS and the cell pellet was re-suspended in 500 µl warm PBS, centrifuged and the supernatant decanted. A volume of 150 μL PBS + 350 μL ice-cold 70% ethanol was added and incubated at 4 °C for 1 h to fix the cells. To remove ethanol, the mixture was centrifuged at 350 rpm for 10 min and then the supernatant was removed. The mixture was washed twice in warm PBS and the cells were re-suspended in 500 μL of warm PBS, centrifuged, and the supernatant was removed. The cells were resuspended in 100 μL PBS and stored at 4 °C for up to four days. In darkness, the cells were stained with 100 µL of propidium iodide (PI) solution + 50 µL RNase A solution (100 µg/mL) and incubated in darkness for 30–60 min. The stained cells were read in an Attune flow cytometer (Applied Bio-system, Foster City, CA, USA).
# [2] = test system: SOD, GSH, CAT, TAC; test: Oxidative stress markers in serum of EAC-bearing mice; format: in vivo
# Procedure: The mice were divided into the following eight groups (10 mice in each group): • Control group: Mice were intraperitoneally injected with a vehicle (2% DMSO + sterile saline) for 12 days. • I, II, and III control groups: Healthy normal mice were intraperitoneally injected with 6, 12, and 18 mg/kg of complex (2), respectively, for 12 days. • EAC group: Mice were intraperitoneally injected by a single dose of 2.5 × 10^6 viable Ehrlich ascites carcinoma (EAC) cells in PBS. In brief, EAC cells were withdrawn from the EAC mouse’s intraperitoneal cavity, washed, and centrifuged three times with sterile saline. Then, the pellets were suspended in sterile PBS and counted by the trypan blue exclusion assay, which confirmed that the viability of the cells was 98%. • I, II, and III treated groups: Firstly, 30 healthy mice were intraperitoneally injected with a single dose of 2.5 × 10^6 viable EAC cells. After one day; the mice were divided into I, II, and III treated groups (10 mice each group), intraperitoneally injected with 6, 12, and 18 mg/kg Ru(III) complex, respectively, for 12 days.
# The animals were monitored for EAC growth by measuring abdominal size. At the end of the experiment all animals were fasted overnight then sacrificed. Serum samples were collected to study the biological parameters such as liver and kidney function as well as antioxidant enzyme activity. Liver samples from each group were frozen immediately in liquid nitrogen for molecular analysis.
# The SOD activity in serum samples was evaluated as described by Dechatelet et al.. GSH was assayed in serum samples by detection of a yellow colored product following a reaction with 5,5’-dithiobis(2-nitrobenzoic acid) (DTNB). The catalase activity was estimated according to Aebi. Total antioxidant capacity (TAC) was determined by the method of Koracevic et al..
# [3] = three treated groups vs untreated EAC group
smiles,measurement,setting,value
"CS(C)=O.Nc1ccccc1-c1nc2ccccc2[nH]1.O.[Cl][Ru]([Cl])[Cl] [(2), [Ru(III)Cl3(DMSO)(Hapbim)]·H2O]",cells in G0/G1 phase,[1],24%
same,cells in G2/M phase,[1],55%
same,cells in S phase,[1],21%
same,SOD levels,"[2]; I (6 mg/kg), II (12 mg/kg), III (18 mg/kg) treated groups vs untreated EAC group",elevated
same,CAT levels,[2]; [3],increased
same,GSH levels,[2]; [3],increased
same,total antioxidant capacity (TAC),"[2]; three treated groups vs untreated EAC group, p < 0.0001",significantly increased
